Source: the supplement of paper PMC11451515

System: SEM cells
Test: cell viability relative to DMSO control; higher = less cytotoxic
Conditions: 48 h
Outline: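 Library compounds in DMSO were pin-dosed into 1536-well plates (5 μl) holding NOMO1 or SEM (500 cells/well) or P12-Ichikawa (1000 cells/well) leukemia cells, across an 11-point threefold series of 47 μM to 0.79 nM. Each cell line had been adapted for at least four passages in each medium. CellTiter-Glo One luminescence was read after 48 h at 37°C. Viability is the per-plate percentage relative to DMSO wells, with cell-free wells as background.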

[1] = HPLM + 10% dialyzed FBS, 0.000781 µM
[2] = HPLM + 10% dialyzed FBS, 0.00234 µM
[3] = HPLM + 10% dialyzed FBS, 0.00702 µM
[4] = HPLM + 10% dialyzed FBS, 0.0211 µM
[5] = HPLM + 10% dialyzed FBS, 0.0632 µM
[6] = HPLM + 10% dialyzed FBS, 0.19 µM
[7] = HPLM + 10% dialyzed FBS, 0.569 µM
[8] = HPLM + 10% dialyzed FBS, 1.71 µM
[9] = HPLM + 10% dialyzed FBS, 5.12 µM
[10] = HPLM + 10% dialyzed FBS, 15.4 µM
[11] = HPLM + 10% dialyzed FBS, 46.1 µM
[12] = RPMI 5 mM glucose + 10% FBS, 0.000781 µM
[13] = RPMI 5 mM glucose + 10% FBS, 0.00234 µM
[14] = RPMI 5 mM glucose + 10% FBS, 0.00702 µM
[15] = RPMI 5 mM glucose + 10% FBS, 0.0211 µM
[16] = RPMI 5 mM glucose + 10% FBS, 0.0632 µM
[17] = RPMI 5 mM glucose + 10% FBS, 0.19 µM
[18] = RPMI 5 mM glucose + 10% FBS, 0.569 µM
[19] = RPMI 5 mM glucose + 10% FBS, 1.71 µM
[20] = RPMI 5 mM glucose + 10% FBS, 5.12 µM
[21] = RPMI 5 mM glucose + 10% FBS, 15.4 µM
[22] = RPMI 5 mM glucose + 10% FBS, 46.1 µM
[23] = RPMI 5 mM glucose + 10% dialyzed FBS, 0.000781 µM
[24] = RPMI 5 mM glucose + 10% dialyzed FBS, 0.00234 µM
[25] = RPMI 5 mM glucose + 10% dialyzed FBS, 0.00702 µM
[26] = RPMI 5 mM glucose + 10% dialyzed FBS, 0.0211 µM
[27] = RPMI 5 mM glucose + 10% dialyzed FBS, 0.0632 µM
[28] = RPMI 5 mM glucose + 10% dialyzed FBS, 0.19 µM
[29] = RPMI 5 mM glucose + 10% dialyzed FBS, 0.569 µM
[30] = RPMI 5 mM glucose + 10% dialyzed FBS, 1.71 µM
[31] = RPMI 5 mM glucose + 10% dialyzed FBS, 5.12 µM
[32] = RPMI 5 mM glucose + 10% dialyzed FBS, 15.4 µM
[33] = RPMI 5 mM glucose + 10% dialyzed FBS, 46.1 µM

Structure (SMILES): CN(C)CCc1c[nH]c2ccc(C[S+](=O)([O-])N3CCCC3)cc12
- cell viability [1]: 78.9%
- cell viability [2]: 97.3%
- cell viability [3]: 91.4%
- cell viability [4]: 104%
- cell viability [5]: 97.1%
- cell viability [6]: 97.5%
- cell viability [7]: 94%
- cell viability [8]: 109%
- cell viability [9]: 97.8%
- cell viability [10]: 86.8%
- cell viability [11]: 83.6%
- cell viability [12]: 83.9%
- cell viability [13]: 93.4%
- cell viability [14]: 85.7%
- cell viability [15]: 93.7%
- cell viability [16]: 101%
- cell viability [17]: 104%
- cell viability [18]: 96.8%
- cell viability [19]: 101%
- cell viability [20]: 87.2%
- cell viability [21]: 60.5%
- cell viability [22]: 67.4%
- cell viability [23]: 87.5%
- cell viability [24]: 96%
- cell viability [25]: 91.5%
- cell viability [26]: 98.4%
- cell viability [27]: 107%
- cell viability [28]: 96.2%
- cell viability [29]: 88.5%
- cell viability [30]: 96.7%
- cell viability [31]: 84.4%
- cell viability [32]: 77.2%
- cell viability [33]: 65%

Structure (SMILES): N=C(N)Nc1ccc(C(=O)Oc2ccc3cc(C(=N)N)ccc3c2)cc1
- cell viability [1]: 95.5%
- cell viability [2]: 87.7%
- cell viability [3]: 87.7%
- cell viability [4]: 92.8%
- cell viability [5]: 96.7%
- cell viability [6]: 25.8%
- cell viability [7]: 102%
- cell viability [8]: 105%
- cell viability [9]: 95.4%
- cell viability [10]: 99.4%
- cell viability [11]: 79.2%
- cell viability [12]: 91.5%
- cell viability [13]: 87.6%
- cell viability [14]: 85.5%
- cell viability [15]: 83.1%
- cell viability [16]: 86.1%
- cell viability [17]: 21.5%
- cell viability [18]: 88.7%
- cell viability [19]: 93.6%
- cell viability [20]: 88.8%
- cell viability [21]: 93.4%
- cell viability [22]: 84%
- cell viability [23]: 112%
- cell viability [24]: 90.4%
- cell viability [25]: 87.3%
- cell viability [26]: 113%
- cell viability [27]: 91.7%
- cell viability [28]: 29.6%
- cell viability [29]: 99.6%
- cell viability [30]: 110%
- cell viability [31]: 92.3%
- cell viability [32]: 110%
- cell viability [33]: 80.4%

Structure (SMILES): Cc1c(C(=O)c2cccc3ccccc23)c2cccc3c2n1[C@H](CN1CCOCC1)CO3
- cell viability [1]: 99.3%
- cell viability [2]: 78.2%
- cell viability [3]: 85.2%
- cell viability [4]: 89.5%
- cell viability [5]: 89.7%
- cell viability [6]: 28.8%
- cell viability [7]: 97.9%
- cell viability [8]: 86.7%
- cell viability [9]: 84%
- cell viability [10]: 78.1%
- cell viability [11]: 4.91%
- cell viability [12]: 93.6%
- cell viability [13]: 74.4%
- cell viability [14]: 71.3%
- cell viability [15]: 94.6%
- cell viability [16]: 88.6%
- cell viability [17]: 47.8%
- cell viability [18]: 93.1%
- cell viability [19]: 80.4%
- cell viability [20]: 95.6%
- cell viability [21]: 84.9%
- cell viability [22]: 4.48%
- cell viability [23]: 104%
- cell viability [24]: 80.4%
- cell viability [25]: 82%
- cell viability [26]: 105%
- cell viability [27]: 98%
- cell viability [28]: 65.1%
- cell viability [29]: 92.3%
- cell viability [30]: 93.1%
- cell viability [31]: 91.7%
- cell viability [32]: 76.5%
- cell viability [33]: 5.76%

Structure (SMILES): O=C1CCCC(=O)C1C(=O)c1ccc(C(F)(F)F)cc1[N+](=O)[O-]
- cell viability [1]: 112%
- cell viability [2]: 115%
- cell viability [3]: 100%
- cell viability [4]: 107%
- cell viability [5]: 108%
- cell viability [6]: 108%
- cell viability [7]: 114%
- cell viability [8]: 102%
- cell viability [9]: 106%
- cell viability [10]: 113%
- cell viability [11]: 108%
- cell viability [12]: 109%
- cell viability [13]: 103%
- cell viability [14]: 112%
- cell viability [15]: 98.4%
- cell viability [16]: 109%
- cell viability [17]: 97.5%
- cell viability [18]: 112%
- cell viability [19]: 101%
- cell viability [20]: 108%
- cell viability [21]: 85.9%
- cell viability [22]: 86%
- cell viability [23]: 105%
- cell viability [24]: 104%
- cell viability [25]: 110%
- cell viability [26]: 110%
- cell viability [27]: 127%
- cell viability [28]: 106%
- cell viability [29]: 111%
- cell viability [30]: 129%
- cell viability [31]: 113%
- cell viability [32]: 115%
- cell viability [33]: 102%

Structure (SMILES): C[N]1N=CC=C1C/2=C(\C)N(C(=O)C(=C2)/C(=O)NCC3=NC=C(C=C3)[S+](C)([O-])=O)C4=CC=CC(=C4)C(F)(F)F
- cell viability [1]: 96%
- cell viability [2]: 98.3%
- cell viability [3]: 100%
- cell viability [4]: 103%
- cell viability [5]: 105%
- cell viability [6]: 103%
- cell viability [7]: 99.5%
- cell viability [8]: 105%
- cell viability [9]: 91.2%
- cell viability [10]: 95.4%
- cell viability [11]: 77.9%
- cell viability [23]: 90%
- cell viability [24]: 105%
- cell viability [25]: 120%
- cell viability [26]: 126%
- cell viability [27]: 115%
- cell viability [28]: 112%
- cell viability [29]: 108%
- cell viability [30]: 115%
- cell viability [31]: 100%
- cell viability [32]: 107%
- cell viability [33]: 76%

Structure (SMILES): NCCc1ccc(O)c(O)c1
- cell viability [1]: 119%
- cell viability [2]: 137%
- cell viability [3]: 121%
- cell viability [4]: 133%
- cell viability [5]: 130%
- cell viability [6]: 132%
- cell viability [7]: 131%
- cell viability [8]: 110%
- cell viability [9]: 109%
- cell viability [10]: 86%
- cell viability [11]: 8.51%
- cell viability [12]: 113%
- cell viability [13]: 136%
- cell viability [14]: 123%
- cell viability [15]: 123%
- cell viability [16]: 127%
- cell viability [17]: 139%
- cell viability [18]: 122%
- cell viability [19]: 96.5%
- cell viability [20]: 128%
- cell viability [21]: 107%
- cell viability [22]: 18.6%
- cell viability [23]: 99%
- cell viability [24]: 124%
- cell viability [25]: 107%
- cell viability [26]: 111%
- cell viability [27]: 123%
- cell viability [28]: 111%
- cell viability [29]: 109%
- cell viability [30]: 105%
- cell viability [31]: 107%
- cell viability [32]: 95.2%
- cell viability [33]: 11.5%

Structure (SMILES): OCCN(CCO)c1nc(N2CCCCC2)c2nc(N(CCO)CCO)nc(N3CCCCC3)c2n1
- cell viability [1]: 108%
- cell viability [2]: 111%
- cell viability [3]: 109%
- cell viability [4]: 109%
- cell viability [5]: 118%
- cell viability [6]: 119%
- cell viability [7]: 117%
- cell viability [8]: 114%
- cell viability [9]: 99.3%
- cell viability [10]: 89.9%
- cell viability [11]: 82.4%
- cell viability [12]: 120%
- cell viability [13]: 111%
- cell viability [14]: 118%
- cell viability [15]: 120%
- cell viability [16]: 127%
- cell viability [17]: 124%
- cell viability [18]: 111%
- cell viability [19]: 104%
- cell viability [20]: 111%
- cell viability [21]: 103%
- cell viability [22]: 72.4%
- cell viability [23]: 128%
- cell viability [24]: 120%
- cell viability [25]: 113%
- cell viability [26]: 104%
- cell viability [27]: 121%
- cell viability [28]: 102%
- cell viability [29]: 143%
- cell viability [30]: 131%
- cell viability [31]: 116%
- cell viability [32]: 106%
- cell viability [33]: 67.8%

Structure (SMILES): O=C(NCc1ccccc1)c1csc(Nc2ccncn2)n1
- cell viability [1]: 84%
- cell viability [2]: 77.5%
- cell viability [3]: 97%
- cell viability [4]: 106%
- cell viability [5]: 108%
- cell viability [6]: 75.7%
- cell viability [7]: 74.4%
- cell viability [8]: 50.4%
- cell viability [9]: 17.2%
- cell viability [10]: 4.02%
- cell viability [11]: 1.49%
- cell viability [12]: 97.4%
- cell viability [13]: 82.9%
- cell viability [14]: 99.5%
- cell viability [15]: 96.3%
- cell viability [16]: 108%
- cell viability [17]: 55.3%
- cell viability [18]: 67.8%
- cell viability [19]: 29.2%
- cell viability [20]: 9.72%
- cell viability [21]: 2.63%
- cell viability [22]: 1.31%
- cell viability [23]: 89.6%
- cell viability [24]: 69.1%
- cell viability [25]: 94.8%
- cell viability [26]: 103%
- cell viability [27]: 108%
- cell viability [28]: 81.5%
- cell viability [29]: 85.9%
- cell viability [30]: 43.7%
- cell viability [31]: 17.4%
- cell viability [32]: 2.76%
- cell viability [33]: 1.35%
